Where two headings read alike, the source gives them in different places.
Columns and labels:
[1] = test system: human liver cells (HepG2); test: MTT viability assay; conditions: for % viability 1 / % viability 2 / % viability 3: 48 hrs
Method: (§1) Cells were harvested and resuspended in growth media (5-10 ml) to count. Cells were diluted to the appropriate concentration (5×10^3), and seeded into 96-well plates as follows: (a) 50 μl of cells per well, (b) 100 μl of growth media in the Blank wells, (c) 100 μl PBS in outer wells (to prevent dehydration of media from the cells). Cells were incubated overnight at 37° C. (5% CO2).
(§2) Compounds were prepared as serial dilutions in growth media. Each treatment concentration was performed in triplicate. 50 μl/well of prepared compound was added to cells.
(§3) A no treatment triplicate (100% viability) was also included by adding 50 μl of growth media to cells. Plates were returned to the incubator for 48 hrs.
(§4) MTT powder in 1×PBS was prepared at 5 mg/ml and filter sterilised. MTT was added to serum-free media to a final concentration of 1 mg/ml. 100 μl of the MTT solution (1 mg/ml) was added to each well, including 0 μM and blank wells. Plates were incubated at 37° C. in incubator for 3 hrs. Following incubation, the media was removed from wells without disrupting the purple crystals formed. 100 μl of DMSO was added to each well using a multichannel pipette. The plates were shaken on the plate shaker until all the crystals have dissolved. The absorbance was measured at 570 nm using a plate reader. The data was analysed using Microsoft Excel. For each treatment concentration the average was calculated, the blank was subtracted and the cell viability was determined as a percentage of the no treatment control (DMSO vehicle control).

[2] = test system: human kidney cells (HEK293); test: MTT viability assay; conditions: for % Viability Remaining 1 / % Viability Remaining 2 / % Viability Remaining 3: 48 hrs
Method: as §1, §2, §3, §4

[3] = test system: Klebsiella pneumoniae 13368; test: Broth microdilution MIC; format: cell-based
Method: (§5) Assays were carried out by a broth microdilution method using a 96-well plate according to guidelines defined by the European Committee on Antimicrobial Susceptibility Testing as described here. Overnight cultures of strains were grown in tryptic soy broth (TSB) at 37° C. The overnight cultures were diluted to a concentration of 1×10^6 bacteria/ml (OD600=0.01) in TSB media. To each well on 96 well plates, 100 μl of bacterially infected media at a concentration of 1×10^6/ml and compounds at various concentrations were added. An uninfected control (i.e. no bacteria) was also included. The plates were incubated at 37° C. wrapped in parafilm for 20 hrs. The growth was assessed by measuring the absorbance at 600 nm. The minimum inhibitory concentration (MIC) was determined to be the lowest concentration of compound that inhibits visible bacterial growth.

EMRSA-16 = test: Broth microdilution MIC; format: cell-based
Method: as §5

MSSA 9144 = test: Broth microdilution MIC; format: cell-based; conditions: Staphylococcus aureus
Method: as §5

[4] = test system: Pseudomonas aeruginosa 13437; test: Broth microdilution MIC; format: cell-based
Method: as §5

[5] = test system: Enterococcus faecalis 12201; test: Broth microdilution MIC; format: cell-based
Method: as §5

[6] = test system: Enterococcus faecalis 775; test: Broth microdilution MIC; format: cell-based
Method: as §5

[7] = test system: Escherichia coli NCTC12923; test: Broth microdilution MIC; format: cell-based
Method: as §5

[8] = test system: Acinetobacter baumannii AYE; test: Broth microdilution MIC; format: cell-based
Method: as §5

[9] = test system: Acinetobacter baumannii 17978; test: Broth microdilution MIC; format: cell-based
Method: as §5

Klebsiella pneumoniae M6 = test: Broth microdilution MIC; format: cell-based
Method: as §5

[10] = test system: Enterococcus faecium 12204; test: Broth microdilution MIC; format: cell-based
Method: as §5

[11] = test system: Pseudomonas aeruginosa PA01; test: Broth microdilution MIC; format: cell-based
Method: as §5

Compound: COc1ccc(/C=C2\SC(=O)N(CC(=O)O)C2=O)cc1 [Compound 5, (Z)-2-(5-(4-Methoxybenzylidene)-2,4-dioxothiazolidin-3-yl)acetic Acid]
- % viability 1 ([1]; HepG2, 12.5 μM): 111%
- % viability 2 ([1]; HepG2, 12.5 μM): 107%
- % viability 3 ([1]; HepG2, 12.5 μM): 105%
- % viability 1 ([1]; HepG2, 25 μM): 111%
- % viability 2 ([1]; HepG2, 25 μM): 106%
- % viability 3 ([1]; HepG2, 25 μM): 105%
- % viability 1 ([1]; HepG2, 50 μM): 102%
- % viability 2 ([1]; HepG2, 50 μM): 91.9%
- % viability 3 ([1]; HepG2, 50 μM): 104%
- % viability 1 ([1]; HepG2, 100 μM): 111%
- % viability 2 ([1]; HepG2, 100 μM): 105%
- % viability 3 ([1]; HepG2, 100 μM): 84.8%
- % viability 1 ([1]; HepG2, 200 μM): 78.7%
- % viability 2 ([1]; HepG2, 200 μM): 110%
- % viability 3 ([1]; HepG2, 200 μM): 94.4%
- % viability 1 ([1]; HepG2, 400 μM): 82.1%
- % viability 2 ([1]; HepG2, 400 μM): 84.9%
- % viability 3 ([1]; HepG2, 400 μM): 92.5%
- toxicity to HepG2 cells (in words) ([1]; HepG2, MTT, up to 400 μM (Defensin 100 μM)): effectively nontoxic
- % Viability Remaining 1 ([2]; HEK293, 12.5 μM): 105%
- % Viability Remaining 2 ([2]; HEK293, 12.5 μM): 103%
- % Viability Remaining 3 ([2]; HEK293, 12.5 μM): 85.0%
- % Viability Remaining 1 ([2]; HEK293, 25 μM): 105%
- % Viability Remaining 2 ([2]; HEK293, 25 μM): 103%
- % Viability Remaining 3 ([2]; HEK293, 25 μM): 85.0%
- % Viability Remaining 1 ([2]; HEK293, 50 μM): 92.3%
- % Viability Remaining 2 ([2]; HEK293, 50 μM): 101%
- % Viability Remaining 3 ([2]; HEK293, 50 μM): 90.8%
- % Viability Remaining 1 ([2]; HEK293, 100 μM): 106%
- % Viability Remaining 2 ([2]; HEK293, 100 μM): 103%
- % Viability Remaining 3 ([2]; HEK293, 100 μM): 82.8%
- % Viability Remaining 1 ([2]; HEK293, 200 μM): 82.7%
- % Viability Remaining 2 ([2]; HEK293, 200 μM): 86.0%
- % Viability Remaining 3 ([2]; HEK293, 200 μM): 84.9%
- % Viability Remaining 1 ([2]; HEK293, 400 μM): 96.4%
- % Viability Remaining 2 ([2]; HEK293, 400 μM): 91.3%
- % Viability Remaining 3 ([2]; HEK293, 400 μM): 89.1%
- toxicity to HEK293 cells (in words) ([2]; HEK293, MTT, up to 400 μM (Defensin 100 μM)): effectively nontoxic
- MIC ([3]; Klebsiella pneumoniae 13368, replicate 1, read-out: MIC #1): > 64 µg/mL
- MIC ([3]; Klebsiella pneumoniae 13368, replicate 2, read-out: MIC #2): > 64 µg/mL
- MIC ([3]; Klebsiella pneumoniae 13368, replicate 3, read-out: MIC #3): > 64 µg/mL
- MIC (EMRSA-16; EMRSA-16, replicate 1, read-out: MIC #1): > 64 µg/mL
- MIC (EMRSA-16; EMRSA-16, replicate 2, read-out: MIC #2): > 64 µg/mL
- MIC (EMRSA-16; EMRSA-16, replicate 3, read-out: MIC #3): > 64 µg/mL
- MIC (MSSA 9144; MSSA 9144, replicate 1, read-out: MIC #1): > 64 µg/mL
- MIC (MSSA 9144; MSSA 9144, replicate 2, read-out: MIC #2): > 64 µg/mL
- MIC (MSSA 9144; MSSA 9144, replicate 3, read-out: MIC #3): > 64 µg/mL
- MIC ([4]; Pseudomonas aeruginosa 13437, replicate 1, read-out: MIC #1): > 64 µg/mL
- MIC ([4]; Pseudomonas aeruginosa 13437, replicate 2, read-out: MIC #2): > 64 µg/mL
- MIC ([4]; Pseudomonas aeruginosa 13437, replicate 3, read-out: MIC #3): > 64 µg/mL
- MIC ([5]; Enterococcus faecalis 12201, replicate 1, read-out: MIC #1): > 64 µg/mL
- MIC ([5]; Enterococcus faecalis 12201, replicate 2, read-out: MIC #2): > 64 µg/mL
- MIC ([5]; Enterococcus faecalis 12201, replicate 3, read-out: MIC #3): > 64 µg/mL
- MIC ([6]; Enterococcus faecalis 775, replicate 1, read-out: MIC #1): > 64 µg/mL
- MIC ([6]; Enterococcus faecalis 775, replicate 2, read-out: MIC #2): > 64 µg/mL
- MIC ([6]; Enterococcus faecalis 775, replicate 3, read-out: MIC #3): > 64 µg/mL
- MIC ([7]; Escherichia coli NCTC12923, replicate 1, read-out: MIC #1): > 64 µg/mL
- MIC ([7]; Escherichia coli NCTC12923, replicate 2, read-out: MIC #2): > 64 µg/mL
- MIC ([7]; Escherichia coli NCTC12923, replicate 3, read-out: MIC #3): > 64 µg/mL
- MIC ([8]; replicate 1, read-out: MIC #1): > 64 µg/mL
- MIC ([8]; replicate 2, read-out: MIC #2): > 64 µg/mL
- MIC ([8]; replicate 3, read-out: MIC #3): > 64 µg/mL
- MIC ([9]; Acinetobacter baumannii 17978, replicate 1, read-out: MIC #1): > 64 µg/mL
- MIC ([9]; Acinetobacter baumannii 17978, replicate 2, read-out: MIC #2): > 64 µg/mL
- MIC ([9]; Acinetobacter baumannii 17978, replicate 3, read-out: MIC #3): > 64 µg/mL
- MIC (Klebsiella pneumoniae M6; Klebsiella pneumoniae M6, replicate 1, read-out: MIC #1): > 64 µg/mL
- MIC (Klebsiella pneumoniae M6; Klebsiella pneumoniae M6, replicate 2, read-out: MIC #2): > 64 µg/mL
- MIC (Klebsiella pneumoniae M6; Klebsiella pneumoniae M6, replicate 3, read-out: MIC #3): > 64 µg/mL
- MIC ([10]; Enterococcus faecium 12204, replicate 1, read-out: MIC #1): > 64 µg/mL
- MIC ([10]; Enterococcus faecium 12204, replicate 2, read-out: MIC #2): > 64 µg/mL
- MIC ([10]; Enterococcus faecium 12204, replicate 3, read-out: MIC #3): > 64 µg/mL
- MIC ([11]; Pseudomonas aeruginosa PA01, replicate 1, read-out: MIC #1): > 64 µg/mL
- MIC ([11]; Pseudomonas aeruginosa PA01, replicate 2, read-out: MIC #2): > 64 µg/mL
- MIC ([11]; Pseudomonas aeruginosa PA01, replicate 3, read-out: MIC #3): > 64 µg/mL
